Experimental data: ChEMBL document CHEMBL4680362, “Androgen Receptor Protein Degradation in the Treatment of Castration-Resistant Prostate Cancer” (ACS Med Chem Lett, 2021)

Key:
[1] = target: T1, von Hippel-Lindau disease tumor suppressor/Androgen receptor (Homo sapiens) (UniProt P10275+P40337); assay: Protac activity at VHL/AR in human LNCaP cells assessed as degradation of AR at 0.1 uM measured after 6 hrs by Western blot analysis relative to control; type: cell-based
[2] = target: T1, von Hippel-Lindau disease tumor suppressor/Androgen receptor (Homo sapiens); assay: Protac activity at VHL/AR in human LNCaP cells assessed as degradation of AR at 0.01 uM measured after 6 hrs by Western blot analysis relative to control; type: cell-based

T1 sequence (P10275 whole entry, looked up): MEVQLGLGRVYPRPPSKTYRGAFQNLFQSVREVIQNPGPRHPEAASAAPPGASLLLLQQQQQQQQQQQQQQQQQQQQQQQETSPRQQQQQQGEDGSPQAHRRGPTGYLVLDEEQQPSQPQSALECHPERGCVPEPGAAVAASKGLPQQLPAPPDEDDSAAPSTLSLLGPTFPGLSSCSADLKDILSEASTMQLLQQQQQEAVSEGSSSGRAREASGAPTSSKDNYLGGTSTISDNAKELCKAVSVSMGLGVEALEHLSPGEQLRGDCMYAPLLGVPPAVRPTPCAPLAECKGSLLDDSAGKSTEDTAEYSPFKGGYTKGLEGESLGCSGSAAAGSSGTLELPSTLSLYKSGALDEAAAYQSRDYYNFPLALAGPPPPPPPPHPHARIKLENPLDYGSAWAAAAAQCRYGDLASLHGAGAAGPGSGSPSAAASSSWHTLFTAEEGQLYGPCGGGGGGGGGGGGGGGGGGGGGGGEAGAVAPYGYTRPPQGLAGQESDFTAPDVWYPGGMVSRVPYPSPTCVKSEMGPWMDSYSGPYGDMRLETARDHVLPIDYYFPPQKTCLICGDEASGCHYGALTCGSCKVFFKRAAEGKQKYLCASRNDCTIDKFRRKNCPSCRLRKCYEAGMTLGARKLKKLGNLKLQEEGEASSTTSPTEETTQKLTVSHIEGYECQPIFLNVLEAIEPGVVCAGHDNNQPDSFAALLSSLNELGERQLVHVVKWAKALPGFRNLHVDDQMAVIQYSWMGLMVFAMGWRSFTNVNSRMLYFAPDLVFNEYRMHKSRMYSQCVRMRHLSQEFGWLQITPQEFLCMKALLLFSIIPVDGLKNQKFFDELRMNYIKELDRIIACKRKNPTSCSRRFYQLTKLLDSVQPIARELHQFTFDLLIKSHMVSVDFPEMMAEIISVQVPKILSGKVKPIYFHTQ
T1 sequence (P40337 whole entry, looked up): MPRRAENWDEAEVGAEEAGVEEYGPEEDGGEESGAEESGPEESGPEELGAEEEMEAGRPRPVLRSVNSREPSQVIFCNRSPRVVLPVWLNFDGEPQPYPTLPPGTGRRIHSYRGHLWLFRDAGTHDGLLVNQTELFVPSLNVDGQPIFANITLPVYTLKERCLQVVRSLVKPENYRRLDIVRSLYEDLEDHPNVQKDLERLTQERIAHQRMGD

Compound | Activity [1] [%] | Activity [2] [%]
CC1(C)[C@H](NC(=O)c2ccc(C#CC3CCN(C4CCN(c5cccc6c5C(=O)N(C5CCC(=O)NC5=O)C6=O)CC4)CC3)cc2)C(C)(C)[C@H]1Oc1ccc(C#N)c(Cl)c1 (some centres undefined) | 2 | –
Cc1ncsc1-c1ccc([C@H](CC(=O)N2CCC(N3CCC(C#Cc4ccc(C(=O)N[C@H]5C(C)(C)[C@H](Oc6ccc(C#N)c(Cl)c6)C5(C)C)cc4)CC3)CC2)NC(=O)[C@@H]2C[C@@H](O)CN2C(=O)[C@@H](NC(=O)C2(F)CC2)C(C)(C)C)cc1 | 99 | 89
Cc1cc([C@H](C(=O)N2C[C@H](O)C[C@H]2C(=O)N[C@@H](CC(=O)N2CCC(N3CCC(C#Cc4ccc(Cc5c(C)nn(-c6ccc(C#N)c(Cl)c6)c5C)cc4)CC3)CC2)c2ccc(-c3scnc3C)cc2)C(C)C)on1 | 65 | –
Cc1cc([C@H](C(=O)N2C[C@H](O)C[C@H]2C(=O)N[C@@H](CC(=O)NN2CCC(N3CCC(C#Cc4ccc(N5C(=S)N(c6cnc(C#N)c(C(F)(F)F)c6)C(=O)C56CCC6)cc4)CC3)CC2)c2ccc(-c3scnc3C)cc2)C(C)C)on1 | 80 | 38
Cc1cc([C@H](C(=O)N2C[C@H](O)C[C@H]2C(=O)N[C@@H](CC(=O)N2CCC(N3CCC(C#Cc4ccc(C(=O)N[C@H]5C(C)(C)[C@H](Oc6ccc(C#N)c(Cl)c6)C5(C)C)cc4)CC3)CC2)c2ccc(-c3scnc3C)cc2)C(C)C)on1 | 98 | 76
Cc1cc([C@H](C(=O)N2C[C@H](O)C[C@H]2C(=O)N[C@@H](CC(=O)NN2CCC(N3CCC(C#Cc4ccc(N5C(=S)N(c6ccc(C#N)c(C(F)(F)F)c6)C(=O)C5(C)C)cc4)CC3)CC2)c2ccc(-c3scnc3C)cc2)C(C)C)on1 | 81 | 20
Cc1ncsc1-c1ccc([C@H](CC(=O)N2CCC(N3CCC(C#Cc4ccc(C(=O)N[C@H]5C(C)(C)[C@H](Oc6ccc(C#N)c(Cl)c6)C5(C)C)cc4)CC3)CC2)NC(=O)[C@@H]2C[C@@H](O)CN2C(=O)[C@@H](NC(=O)C2(C#N)CC2)C(C)(C)C)cc1 | 99 | 76
CC(=O)N[C@H](C(=O)N1C[C@H](O)C[C@H]1C(=O)N[C@@H](CC(=O)N1CCC(N2CCC(C#Cc3ccc(C(=O)N[C@H]4C(C)(C)[C@H](Oc5ccc(C#N)c(Cl)c5)C4(C)C)cc3)CC2)CC1)c1ccc(-c2scnc2C)cc1)C(C)(C)C | 77 | 39
